Source: patent US12630534B2 (TAKEDA PHARMACEUTICAL COMPANY LIMITED, priority 2020, dated 2026)

Target: T1, human GPR139 (Homo sapiens, UniProt Q6DWJ6)
T1 construct: expressed in transfected cells; host or cells: CHO-TREx (Life Technologies) cells, expression induced with doxycycline
T1 sequence (Q6DWJ6 1-353): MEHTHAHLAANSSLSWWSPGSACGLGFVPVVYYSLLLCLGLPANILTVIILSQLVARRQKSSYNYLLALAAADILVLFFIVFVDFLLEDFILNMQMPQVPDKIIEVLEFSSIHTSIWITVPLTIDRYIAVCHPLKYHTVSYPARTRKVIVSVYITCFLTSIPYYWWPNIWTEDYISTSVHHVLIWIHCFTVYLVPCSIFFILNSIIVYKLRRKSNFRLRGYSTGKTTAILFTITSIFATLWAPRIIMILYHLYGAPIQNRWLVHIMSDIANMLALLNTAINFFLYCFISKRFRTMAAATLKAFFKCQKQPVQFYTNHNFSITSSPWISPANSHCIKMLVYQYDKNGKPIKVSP
Test: Inhibition rate of the amount of IP1 in GPR139-expressed CHO cells (inverse agonist assay, Test Example 2)
Format: cell-based
Conditions: relative value, inhibition rate of Example Compound 2 in Test Example 1 defined as 100%; for inhibition at 30 µM: CHO
In short: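 CHO-TREx cells with doxycycline-inducible human GPR139 (2 μg/mL, 17 h) were incubated with compound at 2000 cells/well for 40 min at 37° C. IP1 quantified by HTRF (665/615 nm ratio ×10000); inhibition rate expressed relative to a reference compound defined as […].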

Row | inhibition at 30 µM | Inhibition Rate at 30 μM | SMILES
1 | 100% |  | Cc1cn(Cc2cnn(C(C)C)c2)c(=O)n1-c1cc(C2CC2)cc(N2CCOC(C)(C)C2)n1 [Example 130, 3-[4-cyclopropyl-6-(2,2-dimethylmorpholin-4-yl)pyridin-2-yl]-4-methyl-1-{[1-(propan-2-yl)-1H-pyrazol-4-yl]methyl}-1,3-dihydro-2H-imidazol-2-one]
2 | 96% |  | CCn1cc(Cn2ccn(-c3cc(-c4ccc(F)cc4)cc(C4CC4(F)F)c3F)c2=O)cn1 (stereo not drawn) [Example 131]
3 | 99% |  | CC(C)n1cc(Cn2ccn(-c3nc(N4CCOC(C)(C)C4)cc(C(F)(F)F)c3F)c2=O)cn1 [Example 132, 1-[6-(2,2-dimethylmorpholin-4-yl)-3-fluoro-4-(trifluoromethyl)pyridin-2-yl]-3-{[1-(propan-2-yl)-1H-pyrazol-4-yl]methyl}-1,3-dihydro-2H-imidazol-2-one]
4 | 99% |  | CC(C)n1cc(Cn2ccn(-c3nc(NCC4(F)CCC4)cc(C(F)(F)F)c3F)c2=O)cn1 [Example 133, 1-[3-fluoro-6-{[(1-fluorocyclobutyl)methyl]amino}-4-(trifluoromethyl)pyridin-2-yl]-3-{[1-(propan-2-yl)-1H-pyrazol-4-yl]methyl}-1,3-dihydro-2H-imidazol-2-one]
5 | 98% |  | CCn1cc(Cn2cc(C)n(-c3nc(N4CCOC(C)(C)C4)cc(C(F)(F)F)n3)c2=O)cn1 [Example 134, 3-[4-(2,2-Dimethylmorpholine-4-yl)-6-(trifluoromethyl)pyrimidine-2-yl]-1-[(1-ethyl-H-pyrazole-4-yl)methyl]-4-methyl-1,3-dihydro-2H-imidazole-2-one]
6 | 102% |  | Cc1cn(Cc2cnn(C(C)C)c2)c(=O)n1-c1nc(N2CCOC(C)(C)C2)cc(C(F)(F)F)n1 [Example 135, 3-[4-(2,2-dimethylmorpholin-4-yl)-6-(trifluoromethyl)pyrimidin-2-yl]-4-methyl-1-{[1-(propan-2-yl)-1H-pyrazol-4-yl]methyl}-1,3-dihydro-2H-imidazol-2-one]
7 | 100% |  | CCc1nn(-c2cc(N3CCOC(C)(C)C3)cc(C(F)(F)F)c2F)c(=O)n1Cc1cnn(CC)c1 [Example 136, 2-[5-(2,2-dimethylmorpholin-4-yl)-2-fluoro-3-(trifluoromethyl)phenyl]-5-ethyl-4-[(1-ethyl-1H-pyrazol-4-yl)methyl]-2,4-dihydro-3H-1,2,4-triazol-3-one]
8 | 98% |  | CCn1cc(Cn2cc(C)n(-c3cc(Br)cc(N4CCOC(C)(C)C4)c3)c2=O)cn1 [Example 137, 3-[3-bromo-5-(2,2-dimethylmorpholin-4-yl)phenyl]-1-[(1-ethyl-1H-pyrazol-4-y)methyl]-4-methyl-1,3-dihydro-2H-imidazol-2-one]
9 | 100% |  | CCc1nn(-c2cc(N3CCC(F)(F)CC3)cc(C(F)(F)F)c2F)c(=O)n1Cc1cnn(CC)c1 [Example 138, 2-[5-(4,4-difluoropiperidin-1-yl)-2-fluoro-3-(trifluoromethyl)phenyl]-5-ethyl-4-[(1-ethyl-1H-pyrazol-4-yl)methyl]-2,4-dihydro-3H-1,2,4-triazol-3-one]
10 | 98% |  | CCn1cc(Cn2c(C)cn(-c3cc(N4CCO[C@H](C)C4)cc(Cl)c3F)c2=O)cn1 [Example 139, 1-{3-chloro-2-fluoro-5-[(2R)-2-methylmorpholin-4-yl]phenyl}-3-[(1-ethyl-1H-pyrazol-4-yl)methyl]-4-methyl-1,3-dihydro-2H-imidazol-2-one]
11 | 98% |  | CCn1cc(Cn2c(C)cn(-c3cc(N4CCO[C@H](C)C4)cc(C4CC4)c3F)c2=O)cn1 [Example 140, 1-{3-cyclopropyl-2-fluoro-5-[(2R)-2-methylmorpholin-4-yl]phenyl}-3-[(1-ethyl-1H-pyrazol-4-yl)methyl]-4-methyl-1,3-dihydro-2H-imidazol-2-one]
12 | 101% |  | CCn1cc(Cn2c(C)nn(-c3cc(C(F)(F)F)cc(N4CCC(F)(F)CC4)n3)c2=O)cn1 [Example 141]
13 | 100% |  | Cc1nn(-c2cc(C(F)(F)F)cc(N3CCC(F)(F)CC3)n2)c(=O)n1Cc1cnn(C(C)C)c1 [Example 142, 2-[6-(4,4-difluoropiperidin-1-yl)-4-(trifluoromethyl)pyridin-2-yl]-5-methyl-4-{[1-(propan-2-yl)-1H-pyrazol-4-yl]methyl}-2,4-dihydro-3H-1,2,4-triazol-3-one]
14 | 101% |  | CCn1cc(Cn2c(C(F)(F)F)cn(-c3cc(N4CCO[C@H](C)C4)cc(C4CC4(F)F)c3F)c2=O)cn1 (stereo partly drawn) [Example 143, 1-{3-(2,2-difluorocyclopropyl)-2-fluoro-5-[(2R)-2-methylmorpholin-4-yl]phenyl}-3-[(1-ethyl-1H-pyrazol-4-yl)methyl]-4-(trifluoromethyl)-1,3-dihydro-2H-imidazol-2-one]
15 |  | 101% | CCn1cc(Cn2ccn(-c3cc(-c4ccc(F)cc4)cc(C4CC4(F)F)c3F)c2=O)cn1 (stereo not drawn) [Example 144, 1-[5-(2,2-difluorocyclopropyl)-4,4′-difluoro[1,1′-biphenyl]-3-yl]-3-[(1-ethyl-1H-pyrazol-4-yl)methyl]-1,3-dihydro-2H-imidazol-2-one]
16 |  | 102% | CCn1cc(Cn2ccn(-c3cc(-c4ccc(F)cc4)cc(C4CC4(F)F)c3F)c2=O)cn1 (stereo not drawn) [Example 145, 1-[5-(2,2-difluorocyclopropyl)-4,4′-difluoro[1,1′-biphenyl]-3-yl]-3-[(1-ethyl-1H-pyrazol-4-yl)methyl]-1,3-dihydro-2H-imidazol-2-one]
17 | 103% |  | CCn1cc(Cn2ccn(-c3cc(N4CCOC(C)(C)C4)cc(Br)c3F)c2=O)cn1 [Example 146, 1-[3-bromo-5-(2,2-dimethylmorpholin-4-yl)-2-fluorophenyl]-3-[(1-ethyl-1H-pyrazol-4-yl)methyl]-1,3-dihydro-2H-imidazol-2-one]
18 | 100% |  | CCn1cc(Cn2cc(C)n(-c3cc(C4CC4)cc(N4CCOC(C)(C)C4)c3)c2=O)cn1 [Example 147, 3-[3-cyclopropyl-5-(2,2-dimethylmorpholin-4-yl)phenyl]-1-[(1-ethyl-1H-pyrazol-4-yl)methyl]-4-methyl-1,3-dihydro-2H-imidazol-2-one]
19 | 101% |  | Cc1cn(Cc2cnn(C(C)C)c2)c(=O)n1-c1cc(C(F)(F)F)cc(OC[C@@H]2CCCO2)n1 [Example 148, 4-methyl-3-[6-{[(2S)-oxolan-2-yl]methoxy}-4-(trifluoromethyl)pyridin-2-yl]-1-{[1-(propan-2-yl)-1H-pyrazol-4-yl]methyl}-1,3-dihydro-2H-imidazol-2-one]
20 | 101% |  | CCn1cc(Cn2cc(C)n(-c3cc(C(F)(F)F)c(F)c(N4CCO[C@H](C)C4)n3)c2=O)cn1 [Example 149, 1-[(1-ethyl-1H-pyrazol-4-yl)methyl]-3-{5-fluoro-6-[(2R)-2-methylmorpholin-4-yl]-4-(trifluoromethyl)pyridin-2-yl}-4-methyl-1,3-dihydro-2H-imidazol-2-one]
21 | 101% |  | CCn1cc(Cn2c(C)c(C)n(-c3cc(C(F)(F)F)c(F)c(N4CCO[C@H](C)C4)n3)c2=O)cn1 [Example 150, 1-[(1-ethyl-1H-pyrazol-4-yl)methyl]-3-{5-fluoro-6-[(2R)-2-methylmorpholin-4-yl]-4-(trifluoromethyl)pyridin-2-yl}-4,5-dimethyl-1,3-dihydro-2H-imidazol-2-one]
